We go through seven compounds from ChEMBL document CHEMBL1201862, “PubChem BioAssay data set” (2004).

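Each compound was tested at five concentrations against cells in 96-well plates for 48 hours. GI50 = concentration required for 50% inhibition of growth.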 Active and inactive are the calls of the source. Cut-off read from the data, not from the text of the source: active = GI50 up to about 1.1 µM and inactive = higher.

Some test systems named below: ACHN; CAKI-1; CCRF-CEM; COLO 205; DU-145; EKVX; HCT-116; HCT-15; HT-29; IGROV-1; M14; MCF7; MOLT-4; Malme-3M; NCI-H23; NCI/ADR-RES; OVCAR-4; RPMI-8226; SNB-75; UACC-257.
Common to all, as to experiment: inhibition of tumour cell growth, NCI panel, 48 h

With `CCN1CC(C)Cn2c(=O)[nH]c3cc(Br)cc1c32` (stereo not given), the GI50 in the assay on ACHN was 13.1 µM (inactive); in the assay with CAKI-1 it was 13.9 µM (inactive); in the assay with CCRF-CEM it was 7.67 µM (inactive); in the assay with COLO 205, 11 µM (inactive); in the assay with DU-145 it was 48.8 µM (inactive); in the assay on EKVX, 3.3 µM (inactive). Also, the GI50 was 29.9 µM (inactive) with HCT-116; 14.6 µM in the assay on HCT-15; 33.5 µM (inactive) in the assay with HT-29; 18.5 µM (inactive) in the assay with IGROV-1; 34.1 µM (inactive) in the assay on M14; 17.3 µM (inactive) in the assay on MCF7. Further, the GI50 is 3.05 µM (inactive) with MOLT-4; 64.4 µM (inactive) in the assay on Malme-3M; 36.8 µM (inactive) with NCI-H23; 8.05 µM (inactive) with NCI/ADR-RES; 12.1 µM (inactive) in the assay with OVCAR-4; 1.79 µM (inactive) with RPMI-8226. Moreover, the GI50 in the assay on SNB-75 is 11.4 µM (inactive); in the assay with UACC-257 it was 76 µM (inactive).
Take `CC1Oc2cc3c(-c4c(O)cc(O)c5c(O)c6c(cc45)OC(C)C(C)C6=O)c(O)cc(O)c3c(O)c2C(=O)C1C` (stereo not given): the GI50 is 0.183 µM (active) in the assay with ACHN; 0.231 µM (active) in the assay with CAKI-1; 0.0279 µM (active) with CCRF-CEM; 0.17 µM (active) with COLO 205; 0.365 µM (active) in the assay on DU-145; 0.116 µM (active) in the assay with EKVX. Further, the GI50 with HCT-116 is 0.0378 µM (active); in the assay on HCT-15 it was 0.0474 µM; with HT-29 it was 0.0289 µM (active); in the assay with IGROV-1, 0.0574 µM (active); with M14 it was 0.226 µM (active); in the assay on MCF7 it was 0.147 µM (active). Besides, the GI50 with MOLT-4 was 0.109 µM (active); in the assay with Malme-3M, 0.265 µM (active); in the assay on NCI-H23 it was 0.122 µM (active); with NCI/ADR-RES, 0.162 µM (active); in the assay with OVCAR-4, 0.0869 µM (active); in the assay on RPMI-8226, 0.0489 µM (active). Further, the GI50 in the assay on SNB-75 was 0.0675 µM (active); in the assay with UACC-257, 0.289 µM (active).
Take `Oc1ccc(Br)cc1/C=N/c1cccc(C(F)(F)F)c1`: the GI50 with ACHN is > 100 µM (inactive); in the assay on CAKI-1 it was 66.7 µM (inactive); with CCRF-CEM it was 3.37 µM (inactive); in the assay on COLO 205, 96.6 µM (inactive); in the assay with DU-145 it was 36.8 µM (inactive); in the assay on EKVX, 27.1 µM (inactive). The GI50 was 9.12 µM (inactive) with HCT-116; 6.07 µM in the assay on HCT-15; 37.8 µM (inactive) in the assay on HT-29; 6.24 µM (inactive) with IGROV-1; 17.5 µM (inactive) with M14; 14.5 µM (inactive) in the assay on MCF7. Also, the GI50 with MOLT-4 was 23.1 µM (inactive); with Malme-3M, 23.5 µM (inactive); in the assay with NCI-H23, 37.2 µM (inactive); with NCI/ADR-RES, 28.5 µM (inactive); in the assay on OVCAR-4, 34.8 µM (inactive); in the assay with RPMI-8226, 28.1 µM (inactive). For the same compound, the GI50 in the assay on SNB-75 was 42.6 µM (inactive); in the assay with UACC-257, 35.6 µM (inactive).
Take `CC12CCC(C(Nc3ccccn3)C1=O)C2(C)C` (stereo not given): the GI50 with ACHN, in the assay with CAKI-1, in the assay with CCRF-CEM, in the assay on COLO 205, in the assay on DU-145 and in the assay on EKVX was > 100 µM (inactive) each time. Moreover, the GI50 was > 100 µM (inactive) in the assay with HCT-116; over 100 µM with HCT-15; > 100 µM (inactive) in the assay on HT-29; > 100 µM (inactive) with IGROV-1; > 100 µM (inactive) with M14; > 100 µM (inactive) in the assay with MCF7. Also, the GI50 in the assay with MOLT-4, in the assay with Malme-3M, with NCI-H23, with NCI/ADR-RES, in the assay with OVCAR-4 and in the assay on RPMI-8226 was > 100 µM (inactive) throughout. Also, the GI50 was 63 µM (inactive) in the assay on SNB-75 and > 100 µM (inactive) in the assay with UACC-257.
Regarding `C1CCNCC1.CN(C)c1ccc(/C=C2/NC(=S)NC2=O)cc1`, the GI50 is 64.7 µM (inactive) in the assay with ACHN; 62.5 µM (inactive) in the assay with CAKI-1; 24.9 µM (inactive) in the assay with CCRF-CEM; 49.9 µM (inactive) with COLO 205; 62.1 µM (inactive) in the assay on DU-145; 50.4 µM (inactive) in the assay with EKVX. Also, the GI50 in the assay with HCT-116 was 23.3 µM (inactive); with HCT-15, 45.3 µM; with HT-29, 34.6 µM (inactive); with IGROV-1 it was 59.6 µM (inactive); with M14 it was 68.1 µM (inactive); in the assay on MCF7, 62.4 µM (inactive). For the same compound, the GI50 is 28.2 µM (inactive) with MOLT-4; > 100 µM (inactive) with Malme-3M; 61.5 µM (inactive) in the assay on NCI-H23; 77.4 µM (inactive) with NCI/ADR-RES; > 100 µM (inactive) in the assay with OVCAR-4; 24.5 µM (inactive) with RPMI-8226. For the same compound, the GI50 in the assay with SNB-75 is 49.7 µM (inactive); in the assay on UACC-257, 72.8 µM (inactive).
Regarding `N#Cc1nc(C(F)(F)F)oc1N`, the GI50 in the assay with ACHN is > 100 µM (inactive); in the assay with CAKI-1 it was > 100 µM (inactive); in the assay with CCRF-CEM it was 95.3 µM (inactive); in the assay on COLO 205, > 100 µM (inactive); in the assay on DU-145 it was > 100 µM (inactive); in the assay on EKVX, > 100 µM (inactive). Further, the GI50 in the assay on HCT-116 was > 100 µM (inactive); with HCT-15 it was over 100 µM; in the assay with HT-29, > 100 µM (inactive); with IGROV-1, > 100 µM (inactive); in the assay on M14, > 100 µM (inactive); with MCF7 it was > 100 µM (inactive). The GI50 in the assay with MOLT-4, in the assay on Malme-3M, in the assay with NCI-H23, in the assay on NCI/ADR-RES, with OVCAR-4 and with RPMI-8226 was > 100 µM (inactive) throughout. In addition, the GI50 in the assay on SNB-75 and with UACC-257 was > 100 µM (inactive) in each case.
With `Nc1nc(Cl)c(N)c(NCC2(CO)CCC2)n1`, the GI50 in the assay with ACHN, in the assay with CAKI-1, in the assay on CCRF-CEM, in the assay with COLO 205, with DU-145 and with EKVX was > 100 µM (inactive) each time. The GI50 with HCT-116 is > 100 µM (inactive); in the assay with HCT-15, over 100 µM; in the assay with HT-29, > 100 µM (inactive); in the assay with IGROV-1 it was > 100 µM (inactive); with M14, > 100 µM (inactive); in the assay on MCF7, > 100 µM (inactive). For the same compound, the GI50 with MOLT-4 is > 100 µM (inactive); with Malme-3M, > 100 µM (inactive); in the assay with NCI-H23 it was 94.2 µM (inactive); in the assay with NCI/ADR-RES it was > 100 µM (inactive); in the assay with OVCAR-4 it was > 100 µM (inactive); with RPMI-8226, > 100 µM (inactive). Further, the GI50 in the assay on SNB-75 and with UACC-257 was > 100 µM (inactive) throughout.
